We go through 19 compounds from US9365576B2, “Pyrrolopyrrolidinone compounds” (Novartis AG, priority 2012, dated 2016).

pIC50: −log10 of the molar value.

Sequence of human MDM2 protein (amino acids 2-188) (Q00987 2-188): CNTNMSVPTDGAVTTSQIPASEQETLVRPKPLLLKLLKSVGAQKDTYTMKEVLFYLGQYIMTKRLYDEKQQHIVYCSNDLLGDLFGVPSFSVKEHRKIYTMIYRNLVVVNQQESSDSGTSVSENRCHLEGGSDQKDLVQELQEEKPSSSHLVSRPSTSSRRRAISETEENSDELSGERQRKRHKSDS

This assay concerns the target human MDM2 protein (amino acids 2-188) (Homo sapiens (Human), UniProt Q00987). Kind of assay: TR-FRET assay, p53-MDM2 Assay 2 (modified). It counts as binding. The settings on record: TR-FRET; 0.1 nM MDM2, 0.1 nM Europium labeled streptavidin, Tecan genios Pro reader; read-out: IC50 p53-MDM2 Assay 2. Summed up:
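IC50 values were curve-fitted from the time-resolved 665/620 nm emission ratio after 340 nm excitation. The assay combined 0.625 nM europium-streptavidin donor with 1.25 nM C-terminally biotinylated MDM2 2–188 (15 min, RT), followed by 15 min with 10 nM Cy5-labeled p53 18–26 acceptor peptide.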
Take `COC[C@@H](C)n1c(-c2cnc(N)nc2OC)cc2c1C(c1ccc(Cl)cc1)N(c1ccc(F)c(Cl)c1)C2=O` (stereo partly drawn) [Example 224, (R,S)-2-(2-Amino-4-methoxy-pyrimidin-5-yl)-5-(3-chloro-4-fluoro-phenyl)-6-(4-chloro-phenyl)-1-((R)-2-methoxy-1-methyl-ethyl)-5,6-dihydro-1H-pyrrolo[3,4-b]pyrrol-4-one]: the pIC50 is 9.44. Next, `COc1nc(N)ncc1-c1cc2c(n1C(C)C)C(c1ccc(Cl)cc1)N(c1cc(Cl)ccc1C)C2=O` (stereo not shown) [Example 25, 2-(2-Amino-4-methoxy-pyrimidin-5-yl)-5-(5-chloro-2-methyl-phenyl)-6-(4-chloro-phenyl)-1-isopropyl-5,6-dihydro-1H-pyrrolo[3,4-b]pyrrol-4-one]: 9.58; `COc1ccccc1-c1cc2c(n1C(C)C)C(c1ccc(Cl)cc1C)N(C1CCOCC1)C2=O` (stereo not shown) [Example 104, 6-(4-Chloro-2-methyl-phenyl)-1-isopropyl-2-(2-methoxy-phenyl)-5-(tetrahydro-pyran-4-yl)-5,6-dihydro-1H-pyrrolo[3,4-b]pyrrol-4-one]: 7.81. Take `COc1ncc(-c2cc3c(n2C(C)C)C(c2ccc(C#N)cc2)N(C2CCOCC2)C3=O)c(OC)n1` (stereo not shown) [Example 157, 4-[2-(2,4-Dimethoxy-pyrimidin-5-yl)-1-isopropyl-4-oxo-5-(tetrahydro-pyran-4-yl)-1,4,5,6-tetrahydro-pyrrolo[3,4-b]pyrrol-6-yl]-benzonitrile]: the pIC50 was 8.10.

With `COc1nc(N(C)C)ncc1-c1cc2c(n1C(C)C)C(c1ccc(C#N)cc1)N(c1cc(Cl)ccc1C)C2=O` (stereo not shown) [Example 95, 4-[5-(5-Chloro-2-methyl-phenyl)-2-(2-dimethylamino-4-methoxy-pyrimidin-5-yl)-1-isopropyl-4-oxo-1,4,5,6-tetrahydro-pyrrolo[3,4-b]pyrrol-6-yl]-benzonitrile], the pIC50 is 9.71. Consider `COc1nc(N(C)C)ncc1-c1cc2c(n1C(C)C)C(c1ccc(Cl)cc1)N(c1cc(Cl)cn(C)c1=O)C2=O` (stereo not shown) [Example 73, 5-(5-Chloro-1-methyl-2-oxo-1,2-dihydro-pyridin-3-yl)-6-(4-chloro-phenyl)-2-(2-dimethylamino-4-methoxy-pyrimidin-5-yl)-1-isopropyl-5,6-dihydro-1H-pyrrolo[3,4-b]pyrrol-4-one], for which the pIC50 is 9.79. With `COc1ncc(-c2cc3c(n2C(C)C)C(c2ccc(C#N)cc2)N(c2cc(Cl)cn(C)c2=O)C3=O)c(OC)n1` (stereo not shown) [Example 132, 4-[5-(5-Chloro-1-methyl-2-oxo-1,2-dihydro-pyridin-3-yl)-2-(2,4-dimethoxy-pyrimidin-5-yl)-1-isopropyl-4-oxo-1,4,5,6-tetrahydro-pyrrolo[3,4-b]pyrrol-6-yl]-benzonitrile], the negative logarithm of the IC50 (pIC50) was 8.94. In the case of `CNC(=O)c1ccc(OC)c(-c2cc3c(n2C(C)C)[C@@H](c2ccc(Cl)cc2C)N(c2cc(Cl)ccc2C)C3=O)c1` [Example 33, 3-[(R)-5-(5-Chloro-2-methyl-phenyl)-6-(4-chloro-2-methyl-phenyl)-1-isopropyl-4-oxo-1,4,5,6-tetrahydro-pyrrolo[3,4-b]pyrrol-2-yl]-4-methoxy-N-methyl-benzamide], the pIC50 was 7.35.

With `COc1ccccc1-c1cc2c(n1C(C)C)C(c1ccc(Cl)cc1)N(c1cc(Cl)ccc1C#N)C2=O` (stereo not shown) [Example 96, 4-Chloro-2-[6-(4-chloro-phenyl)-1-isopropyl-2-(2-methoxy-phenyl)-4-oxo-4,6-dihydro-1H-pyrrolo[3,4-b]pyrrol-5-yl]-benzonitrile], the pIC50 was 8.71. As to `COc1ccccc1-c1cc2c(n1C(C)C)C(c1ccc(Cl)cc1)N(C1CCOCC1)C2=O` (stereo not shown) [Example 74, 6-(4-Chloro-phenyl)-1-isopropyl-2-(2-methoxy-phenyl)-5-(tetrahydro-pyran-4-yl)-5,6-dihydro-1H-pyrrolo[3,4-b]pyrrol-4-one], the pIC50 was 8.59. As to `COc1cnc(CC(=O)O)cc1-c1cc2c(n1C(C)C)C(c1ccc(C#N)cc1)N(c1cccc(Cl)c1F)C2=O` (stereo not shown) [Example 84, {4-[5-(3-Chloro-2-fluoro-phenyl)-6-(4-cyano-phenyl)-1-isopropyl-4-oxo-1,4,5,6-tetrahydro-pyrrolo[3,4-b]pyrrol-2-yl]-5-methoxy-pyridin-2-yl}-acetic acid], the pIC50 was 9.32. For the compound `COc1nc(N(C)C)ncc1-c1cc2c(n1C(C)C)[C@H](c1ccc(C#N)cc1)N(c1cc(Cl)c(=O)n(C)c1)C2=O` [Example 232, (S)-4-(5-(5-Chloro-1-methyl-6-oxo-1,6-dihydropyridin-3-yl)-2-(2-(dimethylamino)-4-methoxypyrimidin-5-yl)-1-isopropyl-4-oxo-1,4,5,6-tetrahydropyrrolo[3,4-b]pyrrol-6-yl)benzonitrile], the pIC50 is 10.16. Under `COc1ccncc1-c1cc2c(n1C(C)C)C(c1ccc(Cl)cc1C)N(c1cccc(Cl)c1F)C2=O` (stereo not shown) [Example 6, 5-(3-Chloro-2-fluoro-phenyl)-6-(4-chloro-2-methyl-phenyl)-1-isopropyl-2-(4-methoxy-Pyridin-3-yl)-5,6-dihydro-1H-pyrrolo[3,4-b]pyrrol-4-one] stands 9.76. As for `COc1nc(N(C)C)ncc1-c1cc2c(n1C(C)C)C(c1ccc(Cl)cc1)N(c1cn(C)c(=O)cc1C)C2=O` (stereo not shown) [Example 112, 6-(4-Chloro-phenyl)-2-(2-dimethylamino-4-methoxy-pyrimidin-5-yl)-5-(1,4-dimethyl-6-oxo-1,6-dihydro-pyridin-3-yl)-1-isopropyl-5,6-dihydro-1H-pyrrolo[3,4-b]pyrrol-4-one], the pIC50 was 9.41. Regarding `Cc1ccc(Cl)cc1N1C(=O)c2cc(-c3ccccc3O)n(C(C)C)c2C1c1ccc(Cl)cc1` (stereo not shown) [Example 29, 5-(5-Chloro-2-methyl-phenyl)-6-(4-chloro-phenyl)-2-(2-hydroxy-phenyl)-1-isopropyl-5,6-dihydro-1H-pyrrolo[3,4-b]pyrrol-4-one], the pIC50 is 9.51. As for `COc1nc(N)ncc1-c1cc2c(n1C(C)C)C(c1ccc(Cl)cc1)N(c1cc(C)nn1C)C2=O` (stereo not shown) [Example 175, 2-(2-Amino-4-methoxy-pyrimidin-5-yl)-6-(4-chloro-phenyl)-5-(2,5-dimethyl-2H-pyrazol-3-yl)-1-isopropyl-5,6-dihydro-1H-pyrrolo[3,4-b]pyrrol-4-one], the pIC50 was 8.43. Next, `CNC(=O)Cc1cnc(OC)c(-c2cc3c(n2C(C)C)C(c2ccc(C#N)cc2)N(c2cccc(Cl)c2F)C3=O)c1` (stereo not shown) [Example 85, 2-{5-[5-(3-Chloro-2-fluoro-phenyl)-6-(4-cyano-phenyl)-1-isopropyl-4-oxo-1,4,5,6-tetrahydro-pyrrolo[3,4-b]pyrrol-2-yl]-6-methoxy-pyridin-3-yl}-N-methyl-acetamide]: 8.50; `COc1nc(N)ncc1-c1cc2c(n1C(C)C)C(c1ccc(Cl)cc1)N(c1cc(Cl)c(=O)n(C)c1)C2=O` (stereo not shown) [Example 51, 2-(2-Amino-4-methoxy-pyrimidin-5-yl)-5-(5-chloro-1-methyl-6-oxo-1,6-dihydro-pyridin-3-yl)-6-(4-chloro-phenyl)-1-isopropyl-5,6-dihydro-1H-pyrrolo[3,4-b]pyrrol-4-one]: 9.34; `[2H]C([2H])([2H])Oc1ncc(-c2cc3c(n2C(C)C)[C@H](c2ccc(Cl)cc2)N(c2cc(Cl)c(=O)n(C)c2)C3=O)c(OC([2H])([2H])[2H])n1` [Example 218, (S)-5-(5-Chloro-1-methyl-6-oxo-1,6-dihydro-pyridin-3-yl)-6-(4-chloro-phenyl)-2-(2,4-d6-dimethoxy-pyrimidin-5-yl)-1-isopropyl-5,6-dihydro-1H-pyrrolo[3,4-b]pyrrol-4-one]: 9.97.

A word on the pIC50: it is the negative decadic logarithm of the IC50, by convention in mol/L.
